# Reference: publication PMC7957578, “N-(1,3,4-Oxadiazol-2-yl)Benzamides as Antibacterial Agents against Neisseria gonorrhoeae” (International Journal of Molecular Sciences, 2021)
# Read-outs that look alike come from different tables or passages of the source.
# How the values were obtained:
# Conditions in all cases: Neisseria gonorrhoeae
# [1] = system: N. gonorrhoeae 194; experiment: MIC/MBC against N. gonorrhoeae clinical isolate 194; assay type: cell-based
# Description: (§1) Briefly, bacteria were grown overnight on chocolate agar II at 37° C in the presence of 5% CO2. Afterwards, a bacterial suspension equivalent to 1.0 McFarland standard was prepared and diluted in brucella broth supplemented with yeast extract, neopeptone, hematin, pyridoxal, and NAD. Test agents were added in the first row of the 96-well plates and serially diluted along the plates. Plates were then incubated at 37° C in the presence of 5% CO2 for 24 h. […] Plates were then incubated at 37 ° C in the presence of 5% CO2 for 24 h. The MBC was categorized as the lowest concentration that reduced bacterial growth by 99.9% [45, 46, 47].
# [2] = system: N. gonorrhoeae 200; experiment: MIC/MBC against N. gonorrhoeae clinical isolate 200; assay type: cell-based
# Description: as §1
# [3] = system: N. gonorrhoeae WHO L; experiment: MIC/MBC against N. gonorrhoeae WHO L reference strain; assay type: cell-based
# Description: as §1
# [4] = system: N. gonorrhoeae strain 181; experiment: MIC by broth microdilution against N. gonorrhoeae strain 181; assay type: cell-based, Neisseria gonorrhoeae
# Description: as §1
# [5] = system: N. gonorrhoeae 165; experiment: MIC/MBC against N. gonorrhoeae clinical isolate 165; assay type: cell-based
# Description: as §1
# [6] = system: N. gonorrhoeae 197; experiment: MIC/MBC against N. gonorrhoeae clinical isolate 197; assay type: cell-based
# Description: as §1
# [7] = system: N. gonorrhoeae 166; experiment: MIC/MBC against N. gonorrhoeae clinical isolate 166; assay type: cell-based
# Description: as §1
# [8] = N. gonorrhoeae strain 181, read-out: MIC
compound,measurement,setting,value
"CC[C@H]1OC(=O)[C@H](C)[C@@H](O[C@H]2C[C@@](C)(OC)[C@@H](O)[C@H](C)O2)[C@H](C)[C@@H](O[C@@H]2O[C@H](C)C[C@H](N(C)C)[C@H]2O)[C@](C)(O)C[C@@H](C)CN(C)[C@H](C)[C@@H](O)[C@]1(C)O [Azithromycin, azithromycin, reference compound]",MBC,[1],0.5 µg/mL
same,MIC,[1],0.25 µg/mL
same,MBC,[2],0.5 µg/mL
same,MIC,[2],0.5 µg/mL
same,MBC,[3],1 µg/mL
same,MIC,[3],0.5 µg/mL
same,MIC,[4]; 181,256 µg/mL
same,MBC,[5],4 µg/mL
same,MIC,[5],1 µg/mL
same,MBC,[6],2 µg/mL
same,MIC,[6],0.5 µg/mL
same,MBC,[7],1 µg/mL
same,MIC,[7],0.5 µg/mL
O=C(Nc1nnc(-c2cccs2)o1)c1ccc(S(=O)(=O)C(F)(F)F)cc1 [Compound 6],MIC,[4]; [8],0.5 µg/mL
O=C(Nc1nnc(-c2cccs2)o1)c1ccc(SC(F)(F)F)cc1 [Compound 12],MIC,[4]; [8],0.06 µg/mL
O=C(Nc1nnc(-c2cccs2)o1)c1ccc(S(F)(F)(F)(F)F)cc1 [Compound 13],MIC,[4]; [8],0.06 µg/mL
